Like-named read-outs stand apart in the source and are kept apart here.
Legend:
[1] = system: STZ-induced diabetic SD rats
Protocol: (§1) Male SD rats, 6 weeks of age and weighing 180-200 g, were used in this study; the rats had free access to food and water and were maintained in cages in an environmentally controlled room with a 12 hour light-dark cycle. Diabetes was induced by following dosing of animals with streptozotocin (50 mg/kg/day dosed i.p. for each of the first 3 days of the protocol) in 10 mM sodium citrate-buffer pH 4.6. […] Animals which maintained an elevated blood glucose level of over 9 mM were deemed diabetic.
The retinal images were scanned by a commercially available Fourier-domain OCT (RTVue-100; version 2.1; Optovue, Inc., California, USA). Super-luminescent diode light source with a central wavelength of 840 nm and a full bandwidth of 50 nm was adapted to the OCT. The retinal thickness was accessed by the automatic software of RTVue scanner with manual adjusting. The retinal thickness was defined from layer of retinal pigment eitheluim (RPE) to retinal ganglion cell layer (GCL).
Two separate studies were conducted. Retinal images were taken on experimental day 4, 10, 13, 17, 22, 28 and 31 for the second study and day 0, 4, 7, 10, 14 and 18 for the first study. Animals were anesthetized by inhalation of 5% isoflourane and pupils were diluted with 1% tropicamide and 1% phenylephrine. Prior to OCT analysis animals were fixed on a support frame and the eye to be imaged positioned to align with the center of the scan beam perpendicular to the fundus. […] After imaging, the animals were recovered and returned to cages. Retinal thickness from six time points of OCT measurement were analyzed by repeated measures analysis of variance (ANOVA) using Prism software. […] All data were expressed as mean value±SEM.

[2] = system: STZ-induced diabetic Brown Norway rats (blood-retinal barrier); conditions: hyperglycaemic BN rats
Protocol: as §1, with “Brown Norway (BN)” for “Male SD”, “(65” for “(50”
Eyes were enucleated, hemisected along the ora serrata, and the vitreous humor removed. Eyecups were immersion fixed in 4% (w/v) paraformaldehyde for 30 min, washed in PBS, and the retinas detached. Fixed retinas were cryoprotected, embedded in Tissue-Tek OCT compound snap frozen in liquid nitrogen-cooled isopentane, and 12-μm cryosections prepared. Sections was immunostained with antibodies specific for rat immunoglobulin G (IgG) in order to locate any nonvascular IgG and isolectin B4 to determine the location of retinal blood vessels in the retinal sections and viewed on a confocal microscope. Fluorescence was visualized by using a Nikon TE-2000 C1 confocal system (Nikon Ltd, Kingston upon Thames, UK). In some cases retinal blood vessels were highlighted using propridium iodide staining

[3] = system: STZ-induced diabetic Brown Norway rats (blood-retinal barrier); conditions: BN rats, 2 week study, 10 mg/kg i.p. QD; not statistically robust
Protocol: as §1, with “Brown Norway (BN)” for “Male SD”, “(65” for “(50”

[4] = target: Lp-PLA2 (Rattus norvegicus, UniProt A6JJ35); conditions: hyperglycemic BN rats, 10 mg/kg i.p. QD
Chain of Lp-PLA2 (A6JJ35 22-440): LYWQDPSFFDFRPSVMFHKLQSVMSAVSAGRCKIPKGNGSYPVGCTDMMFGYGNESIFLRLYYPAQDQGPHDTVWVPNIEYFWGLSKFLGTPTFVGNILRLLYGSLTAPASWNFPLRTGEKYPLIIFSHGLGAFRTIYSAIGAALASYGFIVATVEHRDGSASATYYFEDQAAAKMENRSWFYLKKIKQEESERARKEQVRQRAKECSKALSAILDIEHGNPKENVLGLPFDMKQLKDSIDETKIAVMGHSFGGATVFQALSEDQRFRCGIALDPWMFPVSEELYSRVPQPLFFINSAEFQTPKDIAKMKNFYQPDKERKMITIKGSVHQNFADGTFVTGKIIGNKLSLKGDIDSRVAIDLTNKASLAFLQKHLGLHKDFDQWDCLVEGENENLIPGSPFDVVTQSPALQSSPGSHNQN
Protocol: as §1, with “Brown Norway (BN)” for “Male SD”, “(65” for “(50”

[5] = system: rat brain microvascular endothelial cells co-cultured with rat brain astrocytes; experiment: Transendothelial electrical resistance of BMEC monolayers; type: cell-based; conditions: after addition of lysoPC to endothelial monolayers
Protocol: (§2) Three-week-old Sprague-Dawley (SD) rats were sacrificed by cervical dislocation. After white matter, meninges and macroscopic pial vessels were removed, the gray matter was thoroughly triturated in ice-cold Dulbecco's modified Eagle's medium (DMEM). The tissue was then digested in DMEM (7 ml for 5 rat brains) containing collagenease II (1 mg/ml) and DNase I (39 U/ml) at 37° C. for 1 h with shaking speed of 130 rpm. The digested tissue was diluted with the same volume of DMEM and centrifuged at 1000 g for 8 min at 4° C. The cell pellet was re-suspended in a 20% bovine serum albumin (BSA)-DMEM solution and centrifuged at 1000 g for 20 min at 4° C. The microvessels obtained in the pellet were further digested with collagenase-dispase (1 mg/mL) and DNase I (39 U/ml) in DMEM (3 ml for 5 rat brains) for 0.5 h at 37° C. […] After 2 days of puromycin treatment, the culture medium was replaced with supplemented EBM®2 for another 2 days of maintenance before they were ready for construction of co-cultured model. […]
(§3) The astrocytes suspended in 10% FBS-DMEM were seeded on to Poly-L-lysine coated 24-well culture plate at passage between 1 and 4 at a density of 1.5×10^4/cm^2. […] Transendothelial electrical resistance (TEER) of the monolayers were determined everyday using Millicell-ERS (Millipore, Bedford, Mass.) and when the TEER >150 Ω·cm^2, the monolayer was ready for transport experiment. […]

[6] = system: rat brain microvascular endothelial cells co-cultured with rat brain astrocytes; experiment: Permeability of Lucifer yellow in BMEC-astrocyte co-cultures; type: cell-based; conditions: lysoPC 0.3-10 ug/mL added to apical side, 90 min
Protocol: as §2, §3

For `CN(C)CCN(Cc1ccc(-c2ccc(C(F)(F)F)cc2)cc1)C(=O)Cn1cc(Cc2cnn(C)c2)c(=O)nc1SCc1ccc(F)cc1` [Lp-PLA2 inhibitor '495], the “STZ-induced retinal thinning (neuroretinal thickness by OCT)” value ([1]; first study, 10 mg/kg/day i.p. from day 8, assessed at 10 and 18 days, p<0.05) was “partially but significantly inhibited”, the “incidence of sub-retinal fluid accumulation by OCT” value ([1]; hyperglycaemic SD rats, 10 mg/kg/day, day 14) was “no animals to have overt retinal fluid accumulation” and the “STZ-induced retinal thinning (neuroretinal thickness by OCT)” value ([1]; second study, 10 mg/kg/d i.p. from day 4, vs vehicle-treated diabetic rats, p<0.001) was “significant attenuation in the development of retinal thinning”. The “albumin leakage from retinal vessels (immunohistochemistry)” value (from here on “albumin leakage from retinal vessels”) ([2]; 10 mg/kg QD i.p., 4 weeks, listed as SB435495, 10 mg/kg) was “less leakage and extensive co-localization of albumin with retinal blood vessels”, the “albumin leakage from retinal vessels” value ([2]; 20 mg/kg QD i.p., 2 weeks, 20 mg/kg) was “albumin is contained intravascularly and co-localised with retinal vessels” and the “albumin leakage from retinal vessels” value ([2]; 20 mg/kg QD i.p., 2 weeks, listed as SB435495, 20 mg/kg) was “less leakage and extensive co-localization of albumin with retinal blood vessels”. The “Evans blue (albumin) leakage in retinae” value [3] was “reduced this leak to levels exhibited by the normo-glycaemic group”, the “trough Lp-PLA2 inhibition” value ([4]; 2 weeks study) was 89.7% and the “trough Lp-PLA2 inhibition” value ([4]; 4 week study) was 93.2%.

With lysophosphatidylcholine [lysoPC] the “transendothelial electrical resistance (TEER)” value [5] was “reduction in the transendothelial electrical resistance” and the “transport of Lucifer yellow across endothelial monolayer” value [6] was “dose-dependent reduction in the transport of Lucifer yellow”.
